The values below come from US11180474B2 (BRISTOL-MYERS SQUIBB COMPANY, priority 2016, dated 2021).

One may read the IC50 as the concentration at which inhibition is half-maximal. Low values mean greater potency in that assay, high ones weaker potency in that assay.

The target in one assay is T1, human TLR7 (Homo sapiens, UniProt Q9NYK1).
T1 construct: host or cells: HEK-Blue cells
T1 sequence (Q9NYK1 27-1049): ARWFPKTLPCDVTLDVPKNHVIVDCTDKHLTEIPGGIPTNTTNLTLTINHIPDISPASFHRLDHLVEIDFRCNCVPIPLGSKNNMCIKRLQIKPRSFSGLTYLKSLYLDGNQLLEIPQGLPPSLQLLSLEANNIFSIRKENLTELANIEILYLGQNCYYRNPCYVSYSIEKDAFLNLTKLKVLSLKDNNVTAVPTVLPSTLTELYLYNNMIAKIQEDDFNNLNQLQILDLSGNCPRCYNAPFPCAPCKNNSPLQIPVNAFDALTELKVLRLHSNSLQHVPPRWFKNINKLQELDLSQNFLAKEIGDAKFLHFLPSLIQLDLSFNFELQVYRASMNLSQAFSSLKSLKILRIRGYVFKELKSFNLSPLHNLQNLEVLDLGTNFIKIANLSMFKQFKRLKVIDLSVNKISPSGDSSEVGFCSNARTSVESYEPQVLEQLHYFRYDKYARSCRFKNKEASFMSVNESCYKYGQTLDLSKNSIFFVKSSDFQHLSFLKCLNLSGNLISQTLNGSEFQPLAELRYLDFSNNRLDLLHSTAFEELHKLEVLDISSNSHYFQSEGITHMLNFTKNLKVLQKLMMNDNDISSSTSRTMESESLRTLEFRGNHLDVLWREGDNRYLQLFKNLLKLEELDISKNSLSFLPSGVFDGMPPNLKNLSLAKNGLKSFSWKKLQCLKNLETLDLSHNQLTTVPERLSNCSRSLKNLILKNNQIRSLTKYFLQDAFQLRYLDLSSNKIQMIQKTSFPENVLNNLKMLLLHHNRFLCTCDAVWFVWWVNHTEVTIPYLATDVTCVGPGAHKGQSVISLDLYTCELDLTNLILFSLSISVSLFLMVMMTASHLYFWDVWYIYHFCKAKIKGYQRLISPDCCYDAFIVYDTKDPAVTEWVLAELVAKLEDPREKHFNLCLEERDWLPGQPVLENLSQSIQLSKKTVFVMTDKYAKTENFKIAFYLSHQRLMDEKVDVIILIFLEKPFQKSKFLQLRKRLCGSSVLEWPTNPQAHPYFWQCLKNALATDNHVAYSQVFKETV
Briefly: TLR7 inhibition reporter assay (HEK-Blue cells, SEAP reporter, gardiquimod stimulation). It counts as cell-based. The following applies: HEK-Blue cells overexpressing human TLR7, gardiquimod 7.5 μM. The protocol:
(§1) TLR7/8/9 Inhibition Reporter Assays
Briefly, cells are seeded into Greiner 384 well plates (15000 cells per well for TLR7, 20,000 for TLR8 and 25,000 for TLR9) and then treated with test compounds in DMSO to yield a final dose response concentration range of 0.05 nM-50 μM. […] After a 22 hour incubation at 37° C., 5% CO2, SEAP levels are determined with the addition of HEK-Blue™ Detection reagent (Invivogen), a cell culture medium that allows for detection of SEAP, according to manufacturer's specifications. The percent inhibition is determined as the % reduction in the HEK-Blue signal present in wells treated with agonist plus DMSO alone compared to wells treated with a known inhibitor.

A further assay has as its target T2, human TLR9 (Homo sapiens, UniProt Q9NR96).
T2 construct: host or cells: HEK-Blue cells
T2 sequence (Q9NR96 26-1032): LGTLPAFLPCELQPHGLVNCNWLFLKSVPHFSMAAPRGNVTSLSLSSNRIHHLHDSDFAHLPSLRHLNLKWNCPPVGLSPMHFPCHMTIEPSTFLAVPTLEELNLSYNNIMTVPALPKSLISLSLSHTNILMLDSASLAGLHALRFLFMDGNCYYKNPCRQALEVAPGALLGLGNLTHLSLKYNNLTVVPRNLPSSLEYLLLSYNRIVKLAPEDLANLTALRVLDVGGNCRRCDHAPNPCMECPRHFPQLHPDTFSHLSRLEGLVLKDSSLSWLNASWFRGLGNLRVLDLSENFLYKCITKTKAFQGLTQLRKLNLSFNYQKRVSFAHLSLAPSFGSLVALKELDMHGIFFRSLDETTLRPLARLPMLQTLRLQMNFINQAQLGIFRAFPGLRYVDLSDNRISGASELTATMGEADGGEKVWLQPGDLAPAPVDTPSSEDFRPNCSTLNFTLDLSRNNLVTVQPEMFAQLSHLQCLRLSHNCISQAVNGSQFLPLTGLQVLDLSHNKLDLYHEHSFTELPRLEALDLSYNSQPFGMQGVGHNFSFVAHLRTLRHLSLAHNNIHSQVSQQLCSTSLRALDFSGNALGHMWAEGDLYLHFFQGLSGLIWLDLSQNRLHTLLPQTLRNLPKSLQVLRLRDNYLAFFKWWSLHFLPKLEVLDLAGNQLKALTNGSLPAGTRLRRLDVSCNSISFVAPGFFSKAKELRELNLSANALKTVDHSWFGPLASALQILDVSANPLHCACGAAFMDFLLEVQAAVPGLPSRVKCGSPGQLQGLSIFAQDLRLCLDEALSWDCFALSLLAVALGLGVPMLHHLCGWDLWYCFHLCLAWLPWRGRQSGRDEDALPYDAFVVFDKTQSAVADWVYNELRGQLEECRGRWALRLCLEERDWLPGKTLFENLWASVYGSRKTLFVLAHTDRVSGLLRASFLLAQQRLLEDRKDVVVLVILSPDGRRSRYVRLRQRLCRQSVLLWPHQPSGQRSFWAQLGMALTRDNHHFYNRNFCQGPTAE
The assay is described as follows: TLR9 inhibition reporter assay (HEK-Blue cells, SEAP reporter, ODN2006 stimulation). The class given is cell-based. The note with it: HEK-Blue cells overexpressing human TLR9, ODN2006 5 nM. The protocol: as §1
HEK-Blue™-cells (Invivogen) overexpressing human TLR7, TLR8 or TLR9 receptors were used for screening inhibitors of these receptors using an inducible SEAP (secreted embryonic alkaline phosphatase) reporter gene under the control of the IFN-β minimal promoter fused to five NF-κB and AP-1-binding sites. Briefly, cells are seeded into Greiner 384 well plates (15000 cells per well for TLR7, 20,000 for TLR8 and 25,000 for TLR9) and then treated with test compounds in DMSO to yield a final dose response concentration range of 0.05 nM-50 μM. After a 30 minute compound pre-treatment at room temperature, the cells are then stimulated with a TLR7 ligand (gardiquimod at a final concentration of 7.5 μM), TLR8 ligand (R848 at a final concentration of 15.9 μM) or TLR9 ligand (ODN2006 at a final concentration of 5 nM) to activate NF-κB and AP-1 which induce the production of SEAP. After a 22 hour incubation at 37° C., 5% CO2, SEAP levels are determined with the addition of HEK-Blue™ Detection reagent (Invivogen), a cell culture medium that allows for detection of SEAP, according to manufacturer's specifications. The percent inhibition is determined as the % reduction in the HEK-Blue signal present in wells treated with agonist plus DMSO alone compared to wells treated with a known inhibitor.
(In a reporter assay the amount or activity of a reporter protein is the signal.)

Consider `COc1ccc(-c2[nH]c3ccc(C4CCN(C(=O)CNCC(F)(F)F)CC4)cc3c2C(C)C)cc1OC` [Example 221, 1-(4-(2-(3,4-dimethoxyphenyl)-3-isopropyl-1H-indol-5-yl)piperidin-1-yl)-2-((2,2,2-trifluoroethyl)amino)ethan-1-one], for which the results for the IC50 against human TLR7 and against human TLR9 were 162 nM and no less than 50000 nM, respectively.

On to `COc1ccc(-c2[nH]c3ccc(C4CCN(C5CCCNC5)CC4)cc3c2C)cc1OC` (stereo not shown) [Example 106, 5-([1,3′-bipiperidin]-4-yl)-2-(3,4-dimethoxyphenyl)-3-methyl-1H-indole], for which the half-inhibitory concentration (IC50) on human TLR7 came to 905 nM; against human TLR9, 307 nM.

As for `CCC(C)CN1CCC(N2CCC(c3ccc4[nH]c(-c5ccc(OC)c(OC)c5)c(C)c4c3)CC2)CC1` (stereo not shown) [Example 51, 2-(3,4-dimethoxyphenyl)-3-methyl-5-(1′-(2-methylbutyl)-[1,4′-bipiperidin]-4-yl)-1H-indole], the 50% inhibitory concentration (IC50) worked out at 240 nM against human TLR7 and 89 nM against human TLR9.

With `COc1ccc(-c2[nH]c3ccc(C4CCN(C[C@@H]5CCCN5)CC4)cc3c2C)cc1OC` [Example 107, (S)-2-(3,4-dimethoxyphenyl)-3-methyl-5-(1-(pyrrolidin-2-ylmethyl)piperidin-4-yl)-1H-indole], the IC50 against human TLR7 was 1310 nM; on human TLR9 it was 614 nM.

`COc1ccc(-c2[nH]c3ccc(C4CCN(C5CCN(CC(C)C)C5)CC4)cc3c2C)cc1OC` (stereo not shown) [Example 85, 2-(3,4-dimethoxyphenyl)-5-(1-(1-isobutylpyrrolidin-3-yl)piperidin-4-yl)-3-methyl-1H-indole]: the half-maximal inhibitory concentration (IC50) against human TLR7 is 907 nM; against human TLR9, 247 nM.

Regarding `CCOC(=O)N1CCC(N2CCC(c3ccc4[nH]c(-c5ccc(OC)c(OC)c5)c(C)c4c3)CC2)C1` (stereo not shown) [Example 13, ethyl 3-(4-(2-(3,4-dimethoxyphenyl)-3-methyl-1H-indol-5-yl)piperidin-1-yl) pyrrolidine-1-carboxylate], the values for the IC50 on human TLR7 and on human TLR9 were no less than 50000 nM and 1080 nM, respectively.

With `COc1ccc(-c2[nH]c3ccc(C4CCN(C5CC(C)(C)N(C)C(C)(C)C5)CC4)cc3c2C)cc1OC` [Example 22, 2-(3,4-dimethoxyphenyl)-3-methyl-5-(1′,2′,2′,6′,6′-pentamethyl-[1,4′-bipiperidin]-4-yl)-1H-indole], the results for the IC50 on human TLR7 and on human TLR9 were 1160 nM and 1110 nM, respectively.

In the case of `CCOC(=O)C1CC1CN1CCC(N2CCC(c3ccc4[nH]c(-c5ccc(OC)c(OC)c5)c(C)c4c3)CC2)CC1` (stereo not shown) [Example 60, ethyl 2-((4-(2-(3,4-dimethoxyphenyl)-3-methyl-1H-indol-5-yl)-[1,4′-bipiperidin]-1′-yl)methyl)cyclopropane-1-carboxylate], the IC50 against human TLR7 is 270 nM; at human TLR9, 111 nM.

`COc1ccc(-c2[nH]c3ccc(C4CCN(Cc5cncn5C)CC4)cc3c2C)cc1OC` [Example 40, 2-(3,4-dimethoxyphenyl)-3-methyl-5-(1-((1-methyl-1H-imidazol-5-yl)methyl)piperidin-4-yl)-1H-indole]: the concentration for half-maximal inhibition (IC50) came to 512 nM against human TLR7 and 2010 nM against human TLR9.

In the case of `COc1ccc(-c2[nH]c3ccc(C4CCN(C5CCN(C6CCOCC6)CC5)CC4)cc3c2C)cc1OC` [Example 26, 2-(3,4-dimethoxyphenyl)-3-methyl-5-(1′-(tetrahydro-2H-pyran-4-yl)-[1,4′-bipiperidin]-4-yl)-1H-indole], the results for the half-maximal inhibitory concentration (IC50) at human TLR7 and against human TLR9 were 348 nM and 318 nM, respectively.

As for `CCCCN1CCC(N2CCC(c3ccc4[nH]c(-c5ccc(OC)c(OC)c5)c(C)c4c3)CC2)CC1` [Example 82, 5-(1′-butyl-[1,4′-bipiperidin]-4-yl)-2-(3,4-dimethoxyphenyl)-3-methyl-1H-indole], the results for the concentration for half-maximal inhibition (IC50) against human TLR7 and on human TLR9 were 145 nM and 165 nM, respectively.

With `CCc1c(-c2ccc(OC)c(OC)c2)[nH]c2ccc(C3CCN(C(=O)CN4CCN(C(C)=O)CC4)CC3)cc12` [Example 171, 2-(4-acetylpiperazin-1-yl)-1-(4-(2-(3,4-dimethoxyphenyl)-3-ethyl-1H-indol-5-yl)piperidin-1-yl)ethan-1-one], the values for the IC50 at human TLR7 and against human TLR9 were 488 nM and no less than 50000 nM, respectively.

As to `COc1ccc(-c2[nH]c3ccc(C4CCN(C5CCN(CCC(C)O)CC5)CC4)cc3c2C)cc1OC` (stereo not shown) [Example 56, 4-(4-(2-(3,4-dimethoxyphenyl)-3-methyl-1H-indol-5-yl)-[1,4′-bipiperidin]-1′-yl)butan-2-ol], the results for the IC50 against human TLR7 and against human TLR9 were 409 nM and 217 nM, respectively.

Consider `COc1ccc(-c2[nH]c3ccc(C4CCN(C[C@H]5CCCN5)CC4)cc3c2C)cc1OC` [Example 108, (R)-2-(3,4-dimethoxyphenyl)-3-methyl-5-(1-(pyrrolidin-2-ylmethyl)piperidin-4-yl)-1H-indole], for which the half-maximal inhibitory concentration (IC50) at human TLR7 is 3540 nM; against human TLR9, 861 nM.

`COc1ccc(-c2[nH]c3ccc(C4CCN(Cc5csc(N)n5)CC4)cc3c2C)cc1OC` [Example 14, 4-((4-(2-(3,4-dimethoxyphenyl)-3-methyl-1H-indol-5-yl)piperidin-1-yl)methyl)thiazol-2-amine]: the IC50 against human TLR7 is 2110 nM; against human TLR9, 1090 nM.

On to `CCN(C)CCN1CCC(c2ccc3[nH]c(-c4ccc(OC)c(OC)c4)c(C)c3c2)CC1` [Example 111, 2-(4-(2-(3,4-dimethoxyphenyl)-3-methyl-1H-indol-5-yl)piperidin-1-yl)-N-ethyl-N-methylethan-1-amine], for which the concentration for half-maximal inhibition (IC50) was found to be 387 nM against human TLR7 and 1510 nM against human TLR9.

In the case of `CCc1c(-c2ccc(OC)c(OC)c2)[nH]c2ccc(C3CCN(C(=O)CNCC(C)O)CC3)cc12` (stereo not shown) [Example 157, 1-(4-(2-(3,4-dimethoxyphenyl)-3-ethyl-1H-indol-5-yl)piperidin-1-yl)-2-((2-hydroxypropyl)amino)ethan-1-one], the IC50 against human TLR7 came out at 71 nM; at human TLR9, 2840 nM.
